These results are taken from patent US20250099779A1, “DEVICE AND METHOD FOR REGULATING RELEASE OF ADENOSINE IN ORGANISM, AND USE” (WENZHOU VENTURA TECHNOLOGY CO., LTD., priority 2022, published 2025).

Common to all, as to type: in vivo
One test deals with C57BL/6J mice. Nature of the test: EEG/EMG sleep recording after adenosine microinjection into V1 visual cortex. As for the experimental part:
Adenosine was injected locally in the V1 cortex of mice to illustrate that the increase in the concentration of adenosine in the visual cortex could improve the sleep amount of mice. The administration cannulas were implanted in bilateral V1 brain regions of C57BL/6J mice, and the mice were placed in the sleep recording cage after about 10 days of surgical recovery. After 3 days of adaptation, the artificial cerebrospinal fluid (ACSF), adenosine of 1.5 nmol/side or adenosine 4.5 nmol/side was microinjected into the V1 visual cortex at the beginning of the dark phase on days 1, 4 and 7 (the administration order was random, and the injection volume was 2 μl/side), respectively; and the EEG/EMG of mice was recorded.

A further test has as its system CD73-KO mice. The test can be described thus: Nocturnal movement activity after 40 Hz light flicker. As for the experimental part: Thus, we speculated that the 40 Hz light flicker stimulus can regulate sleep rhythm. We firstly exposed the wild-type C57BL/6J mice to light flickers at different frequencies in the last 30 minutes of the daytime phase (19:30-20:00), and then monitored the nocturnal movement activity of the mice, thereby reflecting the sleep-wake states of the mice indirectly. […] We then intraperitoneally injected CD73-KO mice with the […] transporter inhibitor Dipyridamole (Dipyr) at 15 mg/kg. […] Meanwhile, we also intraperitoneally injected CD73-KO mice with the adenosine Al receptor activity antagonist 8-Cyclopentyl-1,3-dipropyl-1H-purine-2,6(3H,7H)-dione (DPCPX) at 6 mg/kg.

The subject of test [1] is adenosine in the visual cortex (V1). Nature of the test: UPLC detection of total adenosine concentration in the visual cortex of mice. The settings on record: mice visual cortex V1, Dipyridamole 6 mg/kg intraperitoneal, 30 min before illumination.
Experimental: The total concentration of adenosine in the visual cortex of mice was detected by ultra-high performance liquid chromatography (which is reported including 95% extracellular adenosine and 5% intracellular adenosine in literature). Dipyridamole (Dipyr) (a 6 mg/kg adenosine transporter inhibitor) dissolved in 0.5% methylcellulose was intraperitoneally injected 30 minutes before illumination, while the control group was given 0.5% methylcellulose. 30 minutes after the injection, the blank control group and the Dipyridamole group were illuminated for 30 minutes by the light flicker stimulus with the illuminance of 3000 lux, the duty ratio of 50% and the strobe of 40 Hz (referred to as “40 Hz light flicker stimulus” hereinafter). After illumination, the materials were sampled, weighed and rapidly frozen in liquid nitrogen immediately. After the sample processing, the peak value at about 2.0 was detected on machine with reference to the parameters of the standard substance, and the area under the curve at this moment was taken as the concentration of adenosine in the sample. Finally, the concentration of adenosine was obtained after checking the sample quality and calibrating.
[2] abbreviates: 4.5 nmol/side microinjected into V1, mice.

Structures are written as SMILES. “Also recorded” adds a separate entry of the source.

`Nc1ncnc2c1ncn2[C@@H]1O[C@H](CO)[C@@H](O)[C@H]1O` [adenosine]: the “sleep amount compared to the control group (ACSF)” value in the test with C57BL/6J mice (1.5 nmol/side microinjected into V1, mice) is “tendency to promote sleep but no significant difference”. In addition, in the test with C57BL/6J mice (setting [2]), the “amount of the non-rapid eye movement sleep in the dark phase” value was 3 h and the “non-rapid eye movement sleep amount compared to the control group (ACSF)” value was “significantly increases”. For the same compound, the “total sleep amount of mice” value in the test with C57BL/6J mice (adenosine injection into the visual cortex, 1.5 and 4.5 nmol/side) is reported as “concentration-dependent increase”.

As for `CCCn1c(=O)c2[nH]c(C3CCCC3)nc2n(CCC)c1=O` [DPCPX, 8-Cyclopentyl-1,3-dipropyl-1H-purine-2,6(3H,7H)-dione], the “movement inhibition effect caused by the 40 Hz light flicker” value with CD73-KO mice (6 mg/kg intraperitoneal, 6 mg/kg) is given as “block the movement inhibition effect”.

For the compound `OCCN(CCO)c1nc(N2CCCCC2)c2nc(N(CCO)CCO)nc(N3CCCCC3)c2n1` [Dipyridamole], the “movement inhibition effect induced by the 40 Hz light flicker” value in the test with CD73-KO mice (15 mg/kg intraperitoneal, 15 mg/kg) was “blocks the movement inhibition effect; also recorded: completely disappeared”. For the same compound, the “total concentration of intracellular and extracellular adenosine” value in test [1] is recorded as “effectively inhibit”.
